Read-outs that look alike come from different tables or passages of the source.
Key:
[1] = system: A/Thailand/2(Kan-1)/16/2004 (H5N1); assay: microbe, parasite or virus in culture; conditions: Influenza A virus, H5N1, MDCK, read-out: IC50, Neutral Red Uptake Assay
[2] = system: Influenza A/Vietnam/1203/2004 (H5N1); assay: microbe, parasite or virus in culture; conditions: H5N1, MDCK, read-out: IC50, Neutral Red Uptake Assay
[3] = system: A/Hong Kong/213/2003 (H5N1); assay: microbe, parasite or virus in culture; conditions: Influenza A virus, H5N1, MDCK, read-out: IC50, Neutral Red Uptake Assay
[4] = system: A/Hong Kong/213/2003 (H5N1)
[5] = system: Influenza A/Vietnam/1203/2004 (H5N1)
[6] = system: Influenza A/Vietnam/1203/2004 (H5N1); remark: listed apart in the source
[7] = system: A/Hong Kong/213/2003 (H5N1); assay: microbe, parasite or virus in culture; conditions: Influenza A virus, H5N1, MDCK, read-out: IC50, Visual Assay
[8] = system: A/Thailand/2(Kan-1)/16/2004 (H5N1); assay: microbe, parasite or virus in culture; conditions: Influenza A virus, H5N1, MDCK, read-out: IC50, Visual Assay
[9] = system: A/Thailand/2(Kan-1)/16/2004 (H5N1)
[10] = system: A/Thailand/2(Kan-1)/16/2004 (H5N1); remark: listed apart in the source
[11] = system: Influenza A/Vietnam/1203/2004 (H5N1); assay: microbe, parasite or virus in culture; conditions: H5N1, MDCK, read-out: IC50, Visual Assay
[12] = system: A/Hong Kong/213/2003 (H5N1); remark: listed apart in the source
[13] = system: MDCK cells
[14] = system: MDCK cells; remark: listed apart in the source
[15] = system: influenza viruses; assay: microbe, parasite or virus in culture; type: cell-based, influenza A and B viruses; conditions: Influenza A virus, read-out: IC50 values, range
[16] = system: influenza virus (H1N1); conditions: read-out: EC50, influenza virus replication in MDCK cells; cited from earlier work
[17] = system: influenza virus; conditions: mouse, in vivo, sc; cited from earlier work
[18] = mouse, in vivo
[19] = system: influenza A/Vietnam/1203/2004 H5N1 virus; conditions: in vivo
[20] = system: A/Thailand/2(Kan-1)/16/2004 (H5N1); assay: microbe, parasite or virus in culture; type: cell-based; conditions: Influenza A virus, H5N1, MDCK, read-out: IC90, VYR Assay
[21] = system: A/Hong Kong/213/2003 (H5N1); assay: microbe, parasite or virus in culture; type: cell-based; conditions: Influenza A virus, H5N1, MDCK, read-out: IC90, VYR Assay
[22] = in vitro; conditions: dog, CC50, Visual Assay
[23] = system: Influenza A/Vietnam/1203/2004 (H5N1); assay: microbe, parasite or virus in culture; type: cell-based; conditions: H5N1, MDCK, read-out: IC90, VYR Assay
[24] = in vitro; conditions: dog, CC50, Neutral Red Uptake Assay

Nc1ncnc2c1ncn2[C@@H]1O[C@H](CO)[C@@H](O)[C@H]1F [2’-deoxy-2’-fluoroadenosine]
IC50 [1]: > 100 µM | IC50 [2]: > 100 µM | IC50 [3]: > 100 µM | SI (CC50/IC50), Visual Assay [4]: 0 | SI (CC50/IC50), Neutral Red Uptake Assay [5]: 0 | SI (CC50/IC50), Visual Assay [6]: 0 | IC50 [7]: > 100 µM | IC50 [8]: > 100 µM | SI (CC50/IC50), Neutral Red Uptake Assay [9]: 0 | SI (CC50/IC50), Visual Assay [10]: 0 | IC50 [11]: > 100 µM | SI (CC50/IC50), Neutral Red Uptake Assay [12]: 0

O=c1ccn([C@@H]2O[C@H](CO)[C@@H](O)[C@H]2F)c(=O)[nH]1 [2’-deoxy-2’-fluorouridine]
IC50 [2]: > 100 µM | SI (CC50/IC50), Neutral Red Uptake Assay [5]: 0 | SI (CC50/IC50), Visual Assay [6]: 0 | IC50 [8]: > 100 µM | SI (CC50/IC50), Visual Assay [10]: 0 | IC50 [11]: > 100 µM

[N-]=[N+]=N[C@@H]1[C@H](O)[C@@H](COP(=O)(O)OP(=O)(O)OP(=O)(O)O)O[C@H]1n1ccc(N)nc1=O [2’-azido-2’-deoxycytidine, 2'-azido-2'-deoxyctidine-5'-triphosphate]
CC50, Neutral Red Uptake Assay [13]: >100 ± 0 µM | SI (CC50/IC50), Visual Assay [4]: 0 ± 0 | CC50, Visual Assay [14]: >100 ± 0 µM | SI (CC50/IC50), Neutral Red Uptake Assay [5]: > 2030 | SI (CC50/IC50), Neutral Red Uptake Assay [9]: 0 ± 0 | SI (CC50/IC50), Visual Assay [10]: 0 ± 0 | SI (CC50/IC50), Neutral Red Uptake Assay [12]: 0 ± 0

Nc1nc2c(ncn2[C@@H]2O[C@H](CO)[C@@H](O)[C@H]2F)c(=O)[nH]1 [2’-deoxy-2’-fluoroguanosine]
IC50 [15]: 8.5 to 21 µM | IC50 [2]: 8.6 µM | SI (CC50/IC50), Visual Assay [4]: >12 | SI (CC50/IC50), Neutral Red Uptake Assay [5]: >12 | EC50 [16]: 18.2 µM | Mice protected from death [17]: 50% | SI (CC50/IC50), Visual Assay [6]: >4.8 | IC50 [7]: 8.5 µM | IC50 [8]: > 100 µM | SI (CC50/IC50), Visual Assay [10]: 0 | IC50 [11]: 21 µM

Nc1nc(=O)n([C@H]2C[C@H](O)[C@@H](CO)O2)cc1F [2'-deoxy-5-fluorocytidine]
Tolerability [18]: well- tolerated | Toxicity in mice [18]: considerable toxicity in the form of severe weight loss | Inhibition in the H5N1 mouse model [19]: not inhibitory | Toxicity in the H5N1 mouse model [19]: very toxic | Promotion of survival of infected mice ([19]; mouse): not very effective | Protection from death, i.p. ([19]; mouse): not shielded from death | IC50 [1]: > 100 µM | IC50 [2]: 0.09 ± 0.1 µM | IC90 [20]: > 100 µM | IC50 [3]: > 100 µM | SI (CC50/IC50), Visual Assay [4]: 0 ± 0 | IC90 [21]: > 100 µM | CC50 [22]: > 100 µM | IC90 [23]: 0.13 µM | IC50 [7]: > 100 µM | IC50 [8]: > 100 µM | SI (CC50/IC50), Neutral Red Uptake Assay [9]: 0 ± 0 | SI (CC50/IC50), Visual Assay [10]: 0 ± 0 | IC50 [11]: 0.19 ± 0.03 µM | SI (CC50/IC50), Neutral Red Uptake Assay [12]: 0 ± 0 | CC50 [24]: > 100 µM

Nc1ccn([C@@H]2O[C@H](CO)[C@@H](O)[C@H]2I)c(=O)n1 [2’-iodo-2’-deoxycytidine]
IC50 [1]: > 100 µM | IC50 [2]: > 100 µM | IC50 [3]: > 100 µM | SI (CC50/IC50), Visual Assay [4]: 0 | SI (CC50/IC50), Neutral Red Uptake Assay [5]: 0 | SI (CC50/IC50), Visual Assay [6]: 0 | IC50 [7]: > 100 µM | IC50 [8]: > 100 µM | SI (CC50/IC50), Neutral Red Uptake Assay [9]: 0 | SI (CC50/IC50), Visual Assay [10]: 0 | IC50 [11]: > 100 µM | SI (CC50/IC50), Neutral Red Uptake Assay [12]: 0
